Reference: the NIST ThermoML archive (doi:10.1021/je900478c)

Experiment: refractive index (Na D-line) (dimensionless); xn = mol fraction of the nth substance listed
Conditions: 101 kPa, Liquid, Standard Abbe refractometry

CCCCOCCO [2-butoxyethan-1-ol] + O
refractive index
Conditions	x1 = 0.1003	x1 = 0.2	x1 = 0.3	x1 = 0.4	x1 = 0.5	x1 = 0.6	x1 = 0.7	x1 = 0.7999	x1 = 0.9	x1 = 1
283.15 K	1.3785	1.3965	1.4061	1.4118	1.4156	1.41823	1.4199	1.4212	1.4221	1.4226
293.15 K	1.37658	1.39418	1.40355	1.4091	1.4128	1.41532	1.41695	1.41815	1.41905	1.4196
303.15 K	1.374	1.39115	1.40025	1.40562	1.4092	1.4116	1.41315	1.4143	1.4152	1.4157
313.15 K	1.37118	1.3878	1.39655	1.40175	1.4052	1.4075	1.40898	1.41012	1.41095	1.41139
323.15 K	–	1.38385	1.39248	1.3976	1.401	1.4032	1.40465	1.40575	1.4066	1.40701

CCCCOCCOCCO [3,6-dioxa-1-decanol] + O
refractive index
Conditions	x1 = 0.1	x1 = 0.2	x1 = 0.2999	x1 = 0.4	x1 = 0.5	x1 = 0.6	x1 = 0.7	x1 = 0.7998	x1 = 0.8999	x1 = 1
283.15 K	1.3916	1.41105	1.42035	1.42548	1.4286	1.4307	1.4323	1.4334	1.4342	1.4347
293.15 K	1.38935	1.40833	1.4174	1.42235	1.42535	1.42735	1.4289	1.4299	1.4307	1.4312
303.15 K	1.38705	1.4057	1.4146	1.41942	1.4224	1.42428	1.4258	1.42675	1.4275	1.42805
313.15 K	1.3842	1.4022	1.4109	1.41568	1.4185	1.4204	1.42185	1.42273	1.4234	1.424
323.15 K	1.3808	1.3982	1.4067	1.4113	1.41405	1.4159	1.41725	1.41815	1.4188	1.4194
